Measurements from publication PMC5676566 (Nature chemical biology, 2017).

Molecular target: BG505 Env (pseudovirus) (Human immunodeficiency virus 1, UniProt Q2N0S5)
Assay: pseudovirus neutralization, TZM-bl cells, luciferase
Assay type: cell-based
Settings: 1% DMSO; separate panel assay printed too (Supplementary Table 1)

Q: With COc1ccnc2[nH]cc(C(=O)C(=O)N3CCN(C(=O)c4ccccc4)C[C@H]3C)c12 [BMS-378806] as the molecule, how does the IC50 read?
A: The IC50 was 1.19 µM.
